Our source for the IC50 values is patent US20250019378A1, “PYRROLE[2,3-B]PYRIDINE DERIVATIVES AS TYRO3 INHIBITORS” (HALIA THERAPEUTICS, INC., priority 2021, published 2025).

One may read the IC50 as the midpoint of a concentration-inhibition curve.

A value given as a limit tells only on which side of the number the result lay.

For this assay, the target named is recombinant human Tyro3 (Homo sapiens (Human), UniProt Q06418). Nature of the assay: Tyro3 Enzymatic Assay. Type of assay: biochemical. The following applies: radiometric [32P]-ATP kinase assay, Poly(Glu, Tyr) substrate, 2 nM enzyme. The method, then:
Poly(Glu, Tyr) sodium salt (Glu:Tyr (4:1), quality level 200, molecular weight 5,000-20,000, obtained from Sigma Aldrich, catalogue #P7244, assay concentration 0.20 mg/mL) and recombinant human Tyro3 (obtained from ThermoFisher Scientific, catalogue #PV3828, assay concentration 2 nM) were mixed in assay buffer (20 mM Hepes pH 7.5, 10 mM MgCl2, […] EGTA, 0.02% Brij35, 0.02 mg/ml BSA, 0.1 mM Na3VO4, 2 mM DTT, 1% DMSO, with added MnCl2 at a final concentration of 2 mM). Compounds of interest (in DMSO, serial 3-fold dilution from 10 μM to 0.5 nM) or control (1% DMSO) were dispensed into the kinase reaction mixture by Acoustic technology (Echo550; nanoliter range). After incubation at room temperature for 20 minutes, the kinase reaction was initiated by addition of [^32P]-ATP (Specific activity 10 μCi/μL) and the mixture was incubated at room temperature for 2 hours. The reaction was then stopped by spotting the reaction mixture on strips of phosphocellulose P81 paper. Following washing, the radioactivity of the P81 paper was measured and kinase activity data were expressed as the percent remaining kinase activity in test samples compared to vehicle (dimethyl sulfoxide) reactions. IC50 values and curve fits were obtained using Prism (GraphPad Software).

Chain of recombinant human Tyro3 (Q06418 41-890): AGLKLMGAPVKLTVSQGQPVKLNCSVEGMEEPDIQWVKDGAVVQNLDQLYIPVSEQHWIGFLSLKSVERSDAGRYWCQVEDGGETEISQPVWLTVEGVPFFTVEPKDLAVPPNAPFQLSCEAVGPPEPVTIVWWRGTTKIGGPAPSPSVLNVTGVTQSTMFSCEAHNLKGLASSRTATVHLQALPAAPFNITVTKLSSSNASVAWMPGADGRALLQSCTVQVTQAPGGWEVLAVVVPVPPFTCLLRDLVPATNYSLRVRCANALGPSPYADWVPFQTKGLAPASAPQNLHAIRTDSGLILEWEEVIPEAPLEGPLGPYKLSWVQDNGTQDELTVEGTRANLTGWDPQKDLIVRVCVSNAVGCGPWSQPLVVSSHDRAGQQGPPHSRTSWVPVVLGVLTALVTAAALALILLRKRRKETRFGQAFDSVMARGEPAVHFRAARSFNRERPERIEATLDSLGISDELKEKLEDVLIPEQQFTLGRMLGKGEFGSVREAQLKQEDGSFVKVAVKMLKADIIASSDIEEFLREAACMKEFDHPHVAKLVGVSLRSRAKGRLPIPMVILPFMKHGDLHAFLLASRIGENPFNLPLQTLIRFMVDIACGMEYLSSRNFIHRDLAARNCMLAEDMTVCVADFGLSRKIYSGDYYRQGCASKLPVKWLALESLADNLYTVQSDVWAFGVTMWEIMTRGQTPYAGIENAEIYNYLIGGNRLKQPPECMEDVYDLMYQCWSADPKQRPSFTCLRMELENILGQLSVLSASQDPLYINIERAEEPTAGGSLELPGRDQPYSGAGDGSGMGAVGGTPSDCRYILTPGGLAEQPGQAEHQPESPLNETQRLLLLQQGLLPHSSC

With `COc1nn(C2CCCN(C)C2)cc1-c1cnc2[nH]cc(-c3cccc(F)c3)c2c1` (stereo not drawn) [Compound 15, 3-(3-fluorophenyl)-5-(3-methoxy-1-(1-methylpiperidin-3-yl)-1H-pyrazol-4-yl)-1H-pyrrolo[2,3-b]pyridine], the IC50 lay in the range of 151 to 501 nM.

In the case of `COc1nn(C2CCN(C)CC2)cc1-c1cnc2[nH]cc(-c3cccc(F)c3)c2c1` [Compound 10, 3-(3-fluorophenyl)-5-(3-methoxy-1-(1-methylpiperidin-4-yl)-1H-pyrazol-4-yl)-1H-pyrrolo[2,3-b]pyridine], the IC50 was below 50 nM.

Regarding `COc1ccc(-c2c[nH]c3ncc(-c4ccn(C5CCN(C)CC5)n4)cc23)cn1` [Compound 6, 3-(6-methoxypyridin-3-yl)-5-(1-(1-methylpiperidin-4-yl)-1H-pyrazol-3-yl)-1H-pyrrolo[2,3-b]pyridine], the IC50 is above 500 nM.

Turning to `COc1nn(C2CCN(C)CC2)cc1-c1cnc2[nH]cc(-c3cccc(C(F)F)c3)c2c1` [Compound 16, 3-(3-(difluoromethyl)phenyl)-5-(3-methoxy-1-(1-methylpiperidin-4-yl)-1H-pyrazol-4-yl)-1H-pyrrolo[2,3-b]pyridine], the IC50 was below 50 nM.

As for `CN1CCC(n2cc(-c3cnc4[nH]cc(-c5cccc(C(F)F)c5)c4c3)c(F)n2)CC1` [Compound 17, 3-(3-(difluoromethyl)phenyl)-5-(3-fluoro-1-(1-methylpiperidin-4-yl)-1H-pyrazol-4-yl)-1H-pyrrolo[2,3-b]pyridine], the IC50 was in the range of 51 to 150 nM.

Turning to `CN1CCC(n2cc(-c3cnc4[nH]cc(-c5cccc(F)c5)c4c3)c(Cl)n2)CC1` [Compound 11, 5-(3-chloro-1-(1-methylpiperidin-4-yl)-1H-pyrazol-4-yl)-3-(3-fluorophenyl)-1H-pyrrolo[2,3-b]pyridine], the IC50 was below 50 nM.

Consider `CCc1[nH]c2ncc(-c3cn(C4CCN(C)CC4)nc3OC)cc2c1-c1cccc(F)c1` [Compound 24, 2-ethyl-3-(3-fluorophenyl)-5-(3-methoxy-1-(1-methylpiperidin-4-yl)-1H-pyrazol-4-yl)-1/-pyrrolo[2,3-b]pyridine], for which the IC50 lay in the range of 51 to 150 nM.

In the case of `COc1ccc(-c2c[nH]c3ncc(-c4cc(CN5CCCC(O)C5)n(C)n4)cc23)cn1` (stereo not drawn) [Compound 35, 1-((3-(3-(6-methoxypyridin-3-yl)-1H-pyrrolo[2,3-b]pyridin-5-yl)-1-methyl-1H-pyrazol-5-yl)methyl)piperidin-3-ol], the IC50 is above 500 nM.

Consider `COc1ccc(-c2c[nH]c3ncc(-c4cnn(C5CCN(C)CC5)c4)cc23)cn1` [Compound 1, 3-(6-methoxypyridin-3-yl)-5-(1-(1-methylpiperidin-4-yl)-1H-pyrazol-4-yl)-1H-pyrrolo[2,3-b]pyridine], for which the IC50 is 151 to 501 nM.

As to `COc1nn(C2CN(C)C2)cc1-c1cnc2[nH]cc(-c3cccc(F)c3)c2c1` [Compound 13, 3-(3-fluorophenyl)-5-(3-methoxy-1-(1-methylazetidin-3-yl)-1H-pyrazol-4-yl)-1H-pyrrolo[2,3-b]pyridine], the IC50 was below 50 nM.

For `COc1ccc(-c2c[nH]c3ncc(-c4ccnn4C4CCN(C)CC4)cc23)cn1` [Compound 7, 3-(6-methoxypyridin-3-yl)-5-(1-(1-methylpiperidin-4-yl)-1H-pyrazol-5-yl)-1H-pyrrolo[2,3-b]pyridine], the IC50 was above 500 nM.

With `COc1ccc(-c2c[nH]c3ncc(-c4cnn(C5CC(OC)C5)c4)cc23)cn1` (stereo not drawn) [Compound 33, 5-(1-(3-methoxycyclobutyl)-1H-pyrazol-4-yl)-3-(6-methoxypyridin-3-yl)-1H-pyrrolo[2,3-b]pyridine], the IC50 was above 500 nM.

Take `COCCN1CCC(n2cc(-c3cnc4[nH]cc(-c5cccc(F)c5)c4c3)c(OC)n2)CC1` [Compound 29, 3-(3-fluorophenyl)-5-(3-methoxy-1-(1-(2-methoxyethyl)piperidin-4-yl)-1H-pyrazol-4-yl)-1H-pyrrolo[2,3-b]pyridine]: the IC50 was 51 to 150 nM.

On to `COc1nn(C2CCCN(C)CC2)cc1-c1cnc2[nH]cc(-c3cccc(F)c3)c2c1` (stereo not drawn) [Compound 14, 3-(3-fluorophenyl)-5-(3-methoxy-1-(1-methylazepan-4-yl)-1H-pyrazol-4-yl)-1H-pyrrolo[2,3-b]pyridine], for which the IC50 was below 50 nM.

On to `COc1ccc(-c2c[nH]c3ncc(-c4cn(C5CCN(C)CC5)nc4Cl)cc23)cn1` [Compound 5, 5-(3-chloro-1-(1-methylpiperidin-4-yl)-1H-pyrazol-4-yl)-3-(6-methoxypyridin-3-yl)-1H-pyrrolo[2,3-b]pyridine], for which the IC50 is below 50 nM.

As to `CCc1[nH]c2ncc(-c3cn(C4CCN(C)CC4)nc3Cl)cc2c1-c1ccc(OC)nc1` [Compound 23, 5-(3-chloro-1-(1-methylpiperidin-4-yl)-1H-pyrazol-4-yl)-2-ethyl-3-(6-methoxypyridin-3-yl)-1H-pyrrolo[2,3-b]pyridine], the IC50 fell in the range of 51 to 150 nM.

As to `CCOc1nn(C2CCN(C)CC2)cc1-c1cnc2[nH]cc(-c3ccc(C(F)F)nc3)c2c1` [Compound 19, 3-(6-(difluoromethyl)pyridin-3-yl)-5-(3-ethoxy-1-(1-methylpiperidin-4-yl)-1H-pyrazol-4-yl)-1H-pyrrolo[2,3-b]pyridine], the IC50 is below 50 nM.

Take `CCOc1nn(C2CCN(C)CC2)cc1-c1cnc2[nH]cc(-c3ccc(OC)nc3)c2c1` [Compound 3, 5-(3-ethoxy-1-(1-methylpiperidin-4-yl)-1H-pyrazol-4-yl)-3-(6-methoxypyridin-3-yl)-1H-pyrrolo[2,3-b]pyridine]: the IC50 is below 50 nM.

Take `COc1ccc(-c2c[nH]c3ncc(-c4cnn(CC5CCN(C)CC5)c4)cc23)cn1` [Compound 31, 3-(6-methoxypyridin-3-yl)-5-(1-((1-methylpiperidin-4-yl)methyl)-1H-pyrazol-4-yl)-1H-pyrrolo[2,3-b]pyridine]: the IC50 is 151 to 501 nM.

With `CCc1[nH]c2ncc(-c3cn(C4CCN(CC)CC4)nc3F)cc2c1-c1ccc(OC)nc1` [Compound 22, 2-ethyl-5-(1-(1-ethylpiperidin-4-yl)-3-fluoro-1H-pyrazol-4-yl)-3-(6-methoxypyridin-3-yl)-1H-pyrrolo[2,3-b]pyridine], the IC50 lay in the range of 51 to 150 nM.

Take `COc1ccc(-c2c[nH]c3ncc(-c4cnn(C5CCC(O)CC5)c4)cc23)cn1` (stereo not drawn) [Compound 32, 4-(4-(3-(6-methoxypyridin-3-yl)-1H-pyrrolo[2,3-b]pyridin-5-yl)-1H-pyrazol-1-yl)cyclohexan-1-ol]: the IC50 fell in the range of 151 to 501 nM.

For `CCc1[nH]c2ncc(-c3cn(C4CCN(C)CC4)nc3Cl)cc2c1-c1cccc(F)c1` [Compound 26, 5-(3-chloro-1-(1-methylpiperidin-4-yl)-1H-pyrazol-4-yl)-2-ethyl-3-(3-fluorophenyl)-1H-pyrrolo[2,3-b]pyridine], the IC50 lay in the range of 151 to 501 nM.

Turning to `CN1CCC(n2cc(-c3cnc4[nH]cc(-c5cccc(C(F)F)c5)c4c3)c(Cl)n2)CC1` [Compound 18, 5-(3-chloro-1-(1-methylpiperidin-4-yl)-1H-pyrazol-4-yl)-3-(3-(difluoromethyl)phenyl)-1H-pyrrolo[2,3-b]pyridine], the IC50 is below 50 nM.

Turning to `COc1ccc(-c2c[nH]c3ncc(-c4cn(C5CCN(C)CC5)nc4F)cc23)cn1` [Compound 4, 5-(3-fluoro-1-(1-methylpiperidin-4-yl)-1H-pyrazol-4-yl)-3-(6-methoxypyridin-3-yl)-1H-pyrrolo[2,3-b]pyridine], the IC50 fell in the range of 51 to 150 nM.
